Test system: Endogenous Huntingtin Protein
Experiment: Endogenous Huntingtin Protein Assay (ELISA-based MSD electrochemiluminescence)
Assay type: cell-based
Summary of the method: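 MSD electrochemiluminescence sandwich ELISA: capture with MW1 (expanded polyQ) or MAB2166 at 1 µg/mL, samples incubated overnight at 4 °C. Detection by rabbit mAb #56565 then SULFO-TAG anti-rabbit antibody, each 0.25 µg/mL for 1 h at room temperature, read in buffer T on SI 6000 imager.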

[1] = Table 2, MSD plates coated with MW1 (expanded polyglutamine) or MAB2166 capture antibody, "inactive" = result above the detection limit of the assay

SMILES	IC50 [1] [nM]	other results
CCC[C@H]1CN(c2ncc(-c3ccc(-c4cn[nH]c4)cc3O)nn2)CCN1 [Cpd 37, 2-{3-[(3S)-3-propylpiperazin-1-yl]-1,2,4-triazin-6-yl}-5-(1H-pyrazol-4-yl)phenol]	50.7	–
CC[C@H]1CN(c2ncc(-c3ccc(-c4ccnc(OC)c4)cc3O)nn2)C[C@@H](C)N1 (single isomer, unassigned) [Cpd 266, 2-{3-[(3S,5R)-3-ethyl-5-methylpiperazin-1-yl]-1,2,4-triazin-6-yl}-5-(2-methoxypyridin-4-yl)phenol or 2-{3-[(3R,5S)-3-ethyl-5-methylpiperazin-1-yl]-1,2,4-triazin-6-yl}-5-(2-methoxypyridin-4-yl)phenol]	19.4	–
Oc1cc(-c2cn[nH]c2F)cc(F)c1-c1cnc(N2CCNC(C3CC3)C2)nn1 (stereo not drawn) [Cpd 32, 2-[3-(3-cyclopropylpiperazin-1-yl)-1,2,4-triazin-6-yl]-3-fluoro-5-(5-fluoro-1H-pyrazol-4-yl)phenol]	40.2	–
Cc1cc(-c2cn[nH]c2)cc(O)c1-c1cnc(N2CCN[C@@H](C(C)C)C2)nn1 [Cpd 127, 3-methyl-2-{3-[(3S)-3-(propan-2-yl)piperazin-1-yl]-1,2,4-triazin-6-yl}-5-(1H-pyrazol-4-yl)phenol]	672	–
C[C@@H]1CN(c2ncc(-c3ccc(-c4ccc5nccn5n4)cc3O)nn2)C[C@H](C)N1 [WO/2019/191229 A1 Cpd 385, reference compound]	–	IC50 (Table 3, selected compounds from WO/2019/191229 A1, same MSD assay): 33.1 nM
Oc1cc(-c2ncco2)ccc1-c1cnc(N2CCN[C@@H](C3CC3)C2)nn1 [Cpd 233, 2-{3-[(3S)-3-cyclopropylpiperazin-1-yl]-1,2,4-triazin-6-yl}-5-(1,3-oxazol-2-yl)phenol]	17.7	–
C[C@@H]1CN(c2ncc(-c3ccc(-n4nccn4)cc3O)nn2)C[C@H](C2CCC2)N1 [Cpd 237, 2-{3-[(3S,5R)-3-cyclobutyl-5-methylpiperazin-1-yl]-1,2,4-triazin-6-yl}-5-(2H-1,2,3-triazol-2-yl)phenol]	104	–
Oc1cc(-c2cn[nH]c2)ccc1-c1cnc(N2CCNC(C3CC3)C2)nn1 (stereo not drawn) [Cpd 5, 2-[3-(3-cyclopropylpiperazin-1-yl)-1,2,4-triazin-6-yl]-5-(1H-pyrazol-4-yl)phenol]	6	–
CC(C)[C@H]1CN(c2ncc(-c3ccc(-n4ccnc4)cc3O)nn2)CCN1 [Cpd 142, 5-(1H-imidazol-1-yl)-2-{3-[(3S)-3-(propan-2-yl)piperazin-1-yl]-1,2,4-triazin-6-yl}phenol]	60.3	–
[2H]C([2H])([2H])Oc1cc(-c2ccc(-c3cnc(N4CCNC(C(C)(C)O)C4)nn3)c(O)c2)ncn1 (stereo not drawn) [Cpd 8, 2-{3-[3-(2-hydroxypropan-2-yl)piperazin-1-yl]-1,2,4-triazin-6-yl}-5-{6-[(^2H3)methyloxy]pyrimidin-4-yl}phenol]	8.7	–
CC(C)[C@H]1CN(c2ncc(-c3ccc(-c4c[nH]nc4F)cc3O)nn2)CCN1 [Cpd 3, 5-(3-fluoro-1H-pyrazol-4-yl)-2-{3-[(3S)-3-(propan-2-yl)piperazin-1-yl]-1,2,4-triazin-6-yl}phenol]	4.4	–
Cn1nc2cc(-c3ccc(-c4cnc(N5CCN[C@@H](C6(C)CC6)C5)nn4)c(O)c3)cnc2n1 [Cpd 241, 2-{3-[(3S)-3-(1-methylcyclopropyl)piperazin-1-yl]-1,2,4-triazin-6-yl}-5-(2-methyl-2H-[1,2,3]triazolo[4,5-b]pyridin-6-yl)phenol]	5.7	–
Cc1nc2ccc(-c3ccc(-c4cnc(N5CCN[C@@H](C(C)C)C5)nn4)c(O)c3)cn2n1 [Cpd 85, 5-(2-methyl[1,2,4]triazolo[1,5-a]pyridin-6-yl)-2-{3-[(3S)-3-(propan-2-yl)piperazin-1-yl]-1,2,4-triazin-6-yl}phenol]	6	–
Oc1cc(-c2ccncc2F)ccc1-c1cnc(N2CCN[C@@H](C3CC3)C2)nn1 [Cpd 178, 2-{3-[(3S)-3-cyclopropylpiperazin-1-yl]-1,2,4-triazin-6-yl}-5-(3-fluoropyridin-4-yl)phenol]	300	–
CC(C)(C)[C@H]1CN(c2ncc(-c3ccc(-n4nccn4)cc3O)nn2)CCN1 [Cpd 18, 2-{3-[(3S)-3-tert-butylpiperazin-1-yl]-1,2,4-triazin-6-yl}-5-(2H-1,2,3-triazol-2-yl)phenol]	15.1	–
CC(C)[C@H]1CN(c2ncc(-c3ccc(-c4ncccn4)cc3O)nn2)CCN1 [Cpd 151, 2-{3-[(3S)-3-(propan-2-yl)piperazin-1-yl]-1,2,4-triazin-6-yl}-5-(pyrimidin-2-yl)phenol]	204	–
COC1(C2CN(c3ncc(-c4ccc(-c5cn[nH]c5)cc4O)nn3)CCN2)CC1 (stereo not drawn) [Cpd 29, 2-{3-[3-(1-methoxycyclopropyl)piperazin-1-yl]-1,2,4-triazin-6-yl}-5-(1H-pyrazol-4-yl)phenol]	28.5	–
CC(C)[C@@H]1CN(c2ncc(-c3ccc(-c4cn[nH]c4F)cc3O)nn2)C[C@H](C)N1 [Cpd 217, 5-(5-fluoro-1H-pyrazol-4-yl)-2-{3-[(3S,5R)-3-methyl-5-(propan-2-yl)piperazin-1-yl]-1,2,4-triazin-6-yl]phenol]	67.9	–

SMILES	IC50 [1] [nM]	other results
Cc1nc2cnc(-c3ccc(-c4cnc(N5C[C@@H](C)N[C@@H](C)C5)nn4)c(O)c3)cn2n1 [Cpd 167, 2-{3-[(3R,5S)-3,5-dimethylpiperazin-1-yl]-1,2,4-triazin-6-yl}-5-(2-methyl[1,2,4]triazolo[1,5-a]pyrazin-6-yl)phenol]	14.2	–
COC[C@H]1CN(c2ncc(-c3ccc(-c4cn[nH]c4)cc3O)nn2)CCN1 [Cpd 53, 2-{3-[(3R)-3-(methoxymethyl)piperazin-1-yl]-1,2,4-triazin-6-yl}-5-(1H-pyrazol-4-yl)phenol]	435	–
CCCC1CN(c2ncc(-c3ccc(-c4cn[nH]c4)cc3O)nn2)CCN1 (stereo not drawn) [Cpd 31, 2-[3-(3-propylpiperazin-1-yl)-1,2,4-triazin-6-yl]-5-(1H-pyrazol-4-yl)phenol]	34.3	–
CC1CN(c2ncc(-c3ccc(-c4cc(F)c5nn(C)cc5c4)cc3O)nn2)CCN1 (stereo not drawn) [Cpd 67, 5-(7-fluoro-2-methyl-2H-indazol-5-yl)-2-[3-(3-methylpiperazin-1-yl)-1,2,4-triazin-6-yl]phenol]	2.1	–
Oc1cc(-c2cn[nH]c2)ccc1-c1cnc(N2CCN3CCOCC3C2)nn1 (stereo not drawn) [Cpd 64, 2-[3-(hexahydropyrazino[2,l-c][1,4]oxazin-8(1H)-yl)-1,2,4-triazin-6-yl]-5-(1H-pyrazol-4-yl)phenol]	–	IC50 (nM) [1]: inactive
Cc1cn2cc(-c3ccc(-c4cnc(N5CCN[C@@H](C(C)C)C5)nn4)c(O)c3)cc(C)c2n1 [Cpd 131, 5-(2,8-dimethylimidazo[1,2-a]pyridin-6-yl)-2-{3-[(3S)-3-(propan-2-yl)piperazin-1-yl]-1,2,4-triazin-6-yl}phenol]	7.6	–
CC(C)[C@H]1CN(c2ncc(-c3ccc(-c4cn[nH]c4)cc3O)nn2)C[C@@H](C)N1 [Cpd 229, 2-{3-[(3R,5S)-3-methyl-5-(propan-2-yl)piperazin-1-yl]-1,2,4-triazin-6-yl}-5-(1H-pyrazol-4-yl)phenol]	18.2	–
Cn1nc2cnc(-c3ccc(-c4cnc(N5CCN[C@@H](C6CC6)C5)nn4)c(O)c3)cc2n1 [Cpd 172, 2-{3-[(3S)-3-cyclopropylpiperazin-1-yl]-1,2,4-triazin-6-yl}-5-(2-methyl-2H-[1,2,3]triazolo[4,5-c]pyridin-6-yl)phenol]	4	–
Cn1nnc2ncc(-c3ccc(-c4cnc(N5CCN[C@@H](C6CC6)C5)nn4)c(O)c3)cc21 [Cpd 169, 2-{3-[(3S)-3-cyclopropylpiperazin-1-yl]-1,2,4-triazin-6-yl}-5-(1-methyl-1H-[1,2,3]triazolo[4,5-b]pyridin-6-yl)phenol]	355	–
Oc1cc(-n2nccn2)ccc1-c1cnc(N2CCN[C@@H](C3CC3)C2)nn1 [Cpd 11, 2-{3-[(3S)-3-cyclopropylpiperazin-1-yl]-1,2,4-triazin-6-yl}-5-(2H-1,2,3-triazol-2-yl)phenol]	9.6	–
Oc1cc(-c2c[nH]nc2Cl)ccc1-c1cnc(N2CCN[C@@H](C3CC3)C2)nn1 [Cpd 163, 5-(3-chloro-1H-pyrazol-4-yl)-2-{3-[(3S)-3-cyclopropylpiperazin-1-yl]-1,2,4-triazin-6-yl}phenol]	4.2	–
Oc1cc(-c2cn[nH]c2)ccc1-c1cnc(N2CCN[C@@H](C3CC3)C2)nn1 [Cpd 137, 2-{3-[(3S)-3-cyclopropylpiperazin-1-yl]-1,2,4-triazin-6-yl}-5-(1H-pyrazol-4-yl)phenol]	7.5	–
Oc1cc(-c2ccncc2)ccc1-c1cnc(N2CCN[C@@H](C3CC3)C2)nn1 [Cpd 177, 2-{3-[(3S)-3-cyclopropylpiperazin-1-yl]-1,2,4-triazin-6-yl}-5-(pyridin-4-yl)phenol]	29	–
COc1cc(-c2ccc(-c3cnc(N4CCN[C@@H](C(C)C)C4)nn3)c(O)c2)nc(OC)n1 [Cpd 207, 5-(2,6-dimethoxypyrimidin-4-yl)-2-{3-[(3S)-3-(propan-2-yl)piperazin-1-yl]-1,2,4-triazin-6-yl}phenol]	10	–
COc1cc(-c2ccc(-c3cnc(N4CCN[C@@H](C(C)C)C4)nn3)c(O)c2)nn2nc(C)nc12 [Cpd 70, 5-(8-methoxy-2-methyl[1,2,4]triazolo[1,5-b]pyridazin-6-yl)-2-{3-[(3S)-3-(propan-2-yl)piperazin-1-yl]-1,2,4-triazin-6-yl}phenol]	3.8	–
CCC1CN(c2ncc(-c3ccc(-c4cc(F)c5nc(C)cn5c4)cc3O)nn2)CCN1 (stereo not drawn) [Cpd 68, 2-[3-(3-ethylpiperazin-1-yl)-1,2,4-triazin-6-yl]-5-(8-fluoro-2-methylimidazo[1,2-a]pyridin-6-yl)phenol]	2.2	–
CC(C)[C@H]1CN(c2ncc(-c3ccc(-c4cn[nH]c4)cc3O)nn2)CCN1 [Cpd 20, 2-{3-[(3S)-3-(propan-2-yl)piperazin-1-yl]-1,2,4-triazin-6-yl}-5-(1H-pyrazol-4-yl)phenol]	17.1	–
Oc1cc(-c2cn[nH]c2)ccc1-c1cnc(N2CCN(C3CC3)CC2)nn1 [Cpd 63, 2-[3-(4-cyclopropylpiperazin-1-yl)-1,2,4-triazin-6-yl]-5-(1H-pyrazol-4-yl)phenol]	–	IC50 (nM) [1]: inactive

— patent publication US20230234942A1, “COMPOUNDS FOR TREATING HUNTINGTON'S DISEASE” (PTC Therapeutics, Inc., priority 2020, published 2023)
